Results taken from patent US20260022142A1, “MACROCYCLIC IMMUNOMODULATORS” (Bristol-Myers Squibb Company, priority 2022, published 2026).
Bridge positions count the residues as written; N and C are the ends. Square brackets hold non-standard residues; d marks the D form. Peptide text beside a SMILES is read from it. * marks the point of attachment. Bip = N[C@@H](Cc1ccc(-c2ccccc2)cc1)C(=O)O; Phe(3-Me) = Cc1cccc(C[C@H](N)C(=O)O)c1; Cha = N[C@@H](CC1CCCCC1)C(=O)O; Carboxymethyl = O=C(O)C*; Orn = NCCC[C@H](N)C(=O)O; Aun = NCCCCCCCCCCC(=O)O; Dab = NCC[C@H](N)C(=O)O; Dap = NC[C@H](N)C(=O)O; AEEA = NCCOCCOCC(=O)O

Target: T1, PD-1/PD-L1 interaction (PE-labeled human PD-L1-Ig binding to Jurkat cell line over-expressing human PD-1) (Homo sapiens, UniProt Q15116)
T1 construct: expressed in transfected cells; host or cells: Jurkat
T1 sequence (Q15116 25-288): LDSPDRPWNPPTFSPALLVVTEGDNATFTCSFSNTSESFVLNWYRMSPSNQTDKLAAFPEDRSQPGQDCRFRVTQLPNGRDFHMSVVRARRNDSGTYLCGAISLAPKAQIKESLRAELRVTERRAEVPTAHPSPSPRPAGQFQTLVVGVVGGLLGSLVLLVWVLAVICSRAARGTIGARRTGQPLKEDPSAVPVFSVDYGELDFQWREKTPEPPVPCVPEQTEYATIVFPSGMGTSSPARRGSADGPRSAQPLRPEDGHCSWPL
Assay: Jurkat-PD-1 Cell Binding High-Content Screening Assay (CBA)
Format: cell-based
Conditions: Jurkat cell line over-expressing human PD-1; PE-labeled PD-L1-Ig 20 nM final; read-out: Jurkat hPD1-PDL1 IC50
Method in brief: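 First, compound is added to PD-1-expressing Jurkat cells in serum-containing DMEM and left 2 h at 37° C. Next, PE-conjugated PD-L1-Ig is introduced at 20 nM final concentration for 1 hour. Finally, cells are fixed in 4% paraformaldehyde with Hoechst 33342, washed and imaged.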

Compound | IC50
CC(C)C[C@H]1NC(=O)[C@H](CCCN)NC(=O)[C@H](C(C)C)NC(=O)[C@H](Cc2ccc(-c3ccccc3)cc2)NC(=O)[C@H](C(C)C)NC(=O)[C@H](Cc2c[nH]c3ccccc23)NC(=O)[C@H](CC(=O)O)NC(=O)[C@H](Cc2ccc(OCC(=O)O)cc2)NC(=O)[C@H](CN)NC(=O)CSC[C@@H](C(=O)N[C@@H](CCC(=O)O)C(=O)NCC(=O)NCCCCCCCCCCC(=O)O)NC(=O)[C@H]([C@@H](C)O)NC(=O)[C@H](C(C)C)NC(=O)[C@H](CC2CCCCC2)NC(=O)[C@H](Cc2cnc[nH]2)NC1=O [Compound 1094] ({CH2CO}-[Dap]Y(Carboxymethyl)DWV[Bip]V[Orn][dL]H[Cha]VTCEG[Aun]-OH; thioether N-14) | 17.2 nM
CC(C)C[C@H]1NC(=O)[C@H](CCCN)NC(=O)[C@H](C(C)C)NC(=O)[C@H](Cc2ccc(-c3ccccc3)cc2)NC(=O)[C@H](C(C)C)NC(=O)[C@H](Cc2c[nH]c3ccccc23)NC(=O)[C@H](CC(=O)O)NC(=O)[C@H](Cc2ccc(OCC(=O)O)cc2)NC(=O)[C@H](CN)NC(=O)CSC[C@@H](C(=O)NCCOCCOCC(=O)N[C@@H](CN)C(=O)NCCCCCCCCCCC(=O)O)NC(=O)[C@H]([C@@H](C)O)NC(=O)[C@H](C(C)C)NC(=O)[C@H](CC2CCCCC2)NC(=O)[C@H](Cc2cnc[nH]2)NC1=O [Compound 1095] ({CH2CO}-[Dap]Y(Carboxymethyl)DWV[Bip]V[Orn][dL]H[Cha]VTC[AEEA][Dap][Aun]-OH; thioether N-14) | 15.7 nM
CC(C)C[C@H]1NC(=O)[C@H](CCCN)NC(=O)[C@H](C(C)C)NC(=O)[C@H](Cc2ccc(-c3ccccc3)cc2)NC(=O)[C@H](C(C)C)NC(=O)[C@H](Cc2c[nH]c3ccccc23)NC(=O)[C@H](CC(=O)O)NC(=O)[C@H](Cc2ccc(OCC(=O)O)cc2)NC(=O)[C@H](CN)NC(=O)CSC[C@@H](C(=O)NCCOCCOCC(=O)N[C@@H](CCN)C(=O)NCCCCCCCCCCC(=O)O)NC(=O)[C@H]([C@@H](C)O)NC(=O)[C@H](C(C)C)NC(=O)[C@H](CC2CCCCC2)NC(=O)[C@H](Cc2cnc[nH]2)NC1=O [Compound 1096] ({CH2CO}-[Dap]Y(Carboxymethyl)DWV[Bip]V[Orn][dL]H[Cha]VTC[AEEA][Dab][Aun]-OH; thioether N-14) | 15.7 nM
CC(C)C[C@H]1NC(=O)[C@H](CCCN)NC(=O)[C@H](C(C)C)NC(=O)[C@H](Cc2ccc(-c3ccccc3)cc2)NC(=O)[C@H](C(C)C)NC(=O)[C@H](Cc2c[nH]c3ccccc23)NC(=O)[C@H](CC(=O)O)NC(=O)[C@H](Cc2ccc(OCC(=O)O)cc2)NC(=O)[C@H](CN)NC(=O)CSC[C@@H](C(=O)NCCOCCOCC(=O)N[C@@H](CCCN)C(=O)NCCCCCCCCCCC(=O)O)NC(=O)[C@H]([C@@H](C)O)NC(=O)[C@H](C(C)C)NC(=O)[C@H](CC2CCCCC2)NC(=O)[C@H](Cc2cnc[nH]2)NC1=O [Compound 1097] ({CH2CO}-[Dap]Y(Carboxymethyl)DWV[Bip]V[Orn][dL]H[Cha]VTC[AEEA][Orn][Aun]-OH; thioether N-14) | 14.9 nM
CC(C)C[C@H]1NC(=O)[C@H](CCCN)NC(=O)[C@H](C(C)C)NC(=O)[C@H](Cc2ccc(-c3ccccc3)cc2)NC(=O)[C@H](C(C)C)NC(=O)[C@H](Cc2c[nH]c3ccccc23)NC(=O)[C@H](CC(=O)O)NC(=O)[C@H](Cc2ccc(OCC(=O)O)cc2)NC(=O)[C@H](CN)NC(=O)CSC[C@@H](C(=O)NCCOCCOCC(=O)N[C@@H](CCC(=O)O)C(=O)NCCCCCCCCCCC(=O)O)NC(=O)[C@H]([C@@H](C)O)NC(=O)[C@H](C(C)C)NC(=O)[C@H](CC2CCCCC2)NC(=O)[C@H](Cc2cnc[nH]2)NC1=O [Compound 1099] ({CH2CO}-[Dap]Y(Carboxymethyl)DWV[Bip]V[Orn][dL]H[Cha]VTC[AEEA]E[Aun]-OH; thioether N-14) | 13.8 nM
CC(C)C[C@H]1NC(=O)[C@H](CCCN)NC(=O)[C@H](C(C)C)NC(=O)[C@H](Cc2ccc(-c3ccccc3)cc2)NC(=O)[C@H](C(C)C)NC(=O)[C@H](Cc2c[nH]c3ccccc23)NC(=O)[C@H](CC(=O)O)NC(=O)[C@H](Cc2ccc(OCC(=O)O)cc2)NC(=O)[C@H](CN)NC(=O)CSC[C@@H](C(=O)NCCOCCOCC(=O)NCCCCCCCCCCC(=O)O)NC(=O)[C@H]([C@@H](C)O)NC(=O)[C@H](C(C)C)NC(=O)[C@H](CC2CCCCC2)NC(=O)[C@H](Cc2cnc[nH]2)NC1=O [Compound 1100] ({CH2CO}-[Dap]Y(Carboxymethyl)DWV[Bip]V[Orn][dL]H[Cha]VTC[AEEA][Aun]-OH; thioether N-14) | 8.8 nM
Cc1cccc(C[C@@H]2NC(=O)[C@H](CC(=O)O)NC(=O)[C@H](Cc3ccc(OCC(=O)O)cc3)NC(=O)[C@H](CN)NC(=O)CSC[C@@H](C(=O)N[C@@H](CCN)C(=O)NCCCCCCCCCCC(=O)O)NC(=O)[C@H]([C@@H](C)O)NC(=O)[C@H](C(C)C)NC(=O)[C@H](CC3CCCCC3)NC(=O)[C@H](Cc3cnc[nH]3)NC(=O)[C@@H](CC(C)C)NC(=O)[C@H](CCCN)NC(=O)[C@H](C(C)C)NC(=O)[C@H](Cc3ccc(-c4ccccc4)cc3)NC(=O)[C@H](C(C)C)NC2=O)c1 [Compound 1101] ({CH2CO}-[Dap]Y(Carboxymethyl)D[Phe(3-Me)]V[Bip]V[Orn][dL]H[Cha]VTC[Dab][Aun]-OH; thioether N-14) | 69.6 nM
Cc1cccc(C[C@@H]2NC(=O)[C@H](CC(=O)O)NC(=O)[C@H](Cc3ccc(OCC(=O)O)cc3)NC(=O)[C@H](CN)NC(=O)CSC[C@@H](C(=O)N[C@@H](C)C(=O)N[C@@H](CCC(=O)O)C(=O)NCCCCCCCCCCC(=O)O)NC(=O)[C@H]([C@@H](C)O)NC(=O)[C@H](C(C)C)NC(=O)[C@H](CC3CCCCC3)NC(=O)[C@H](Cc3cnc[nH]3)NC(=O)[C@@H](CC(C)C)NC(=O)[C@H](CCCN)NC(=O)[C@H](C(C)C)NC(=O)[C@H](Cc3ccc(-c4ccccc4)cc3)NC(=O)[C@H](C(C)C)NC2=O)c1 [Compound 1103] ({CH2CO}-[Dap]Y(Carboxymethyl)D[Phe(3-Me)]V[Bip]V[Orn][dL]H[Cha]VTCAE[Aun]-OH; thioether N-14) | 29.1 nM

The remaining lines, values ahead:

IC50 | Compound
23 nM | CC(C)C[C@H]1NC(=O)[C@H](CCCN)NC(=O)[C@H](C(C)C)NC(=O)[C@H](Cc2ccc(-c3ccccc3)cc2)NC(=O)[C@H](C(C)C)NC(=O)[C@H](Cc2c[nH]c3ccccc23)NC(=O)[C@H](CC(=O)O)NC(=O)[C@H](Cc2ccc(OCC(=O)O)cc2)NC(=O)[C@H](CN)NC(=O)CSC[C@@H](C(=O)NCCOCCOCC(=O)N[C@@H](CC(=O)O)C(=O)NCCCCCCCCCCC(=O)O)NC(=O)[C@H]([C@@H](C)O)NC(=O)[C@H](C(C)C)NC(=O)[C@H](CC2CCCCC2)NC(=O)[C@H](Cc2cnc[nH]2)NC1=O [Compound 1105] ({CH2CO}-[Dap]Y(Carboxymethyl)DWV[Bip]V[Orn][dL]H[Cha]VTC[AEEA]D[Aun]-OH; thioether N-14)
26.5 nM | Cc1cccc(C[C@@H]2NC(=O)[C@H](CC(=O)O)NC(=O)[C@H](Cc3ccc(OCC(=O)O)cc3)NC(=O)[C@H](CN)NC(=O)CSC[C@@H](C(=O)N[C@@H](CCC(=O)O)C(=O)NCC(=O)NCCCCCCCCCCC(=O)O)NC(=O)[C@H]([C@@H](C)O)NC(=O)[C@H](C(C)C)NC(=O)[C@H](CC3CCCCC3)NC(=O)[C@H](Cc3cnc[nH]3)NC(=O)[C@@H](CC(C)C)NC(=O)[C@H](CCCN)NC(=O)[C@H](C(C)C)NC(=O)[C@H](Cc3ccc(-c4ccccc4)cc3)NC(=O)[C@H](C(C)C)NC2=O)c1 [Compound 1106] ({CH2CO}-[Dap]Y(Carboxymethyl)D[Phe(3-Me)]V[Bip]V[Orn][dL]H[Cha]VTCEG[Aun]-OH; thioether N-14)
35.8 nM | Cc1cccc(C[C@@H]2NC(=O)[C@H](CC(=O)O)NC(=O)[C@H](Cc3ccc(OCC(=O)O)cc3)NC(=O)[C@H](CN)NC(=O)CSC[C@@H](C(=O)N[C@@H](CC(=O)O)C(=O)NCCCCCCCCCCC(=O)O)NC(=O)[C@H]([C@@H](C)O)NC(=O)[C@H](C(C)C)NC(=O)[C@H](CC3CCCCC3)NC(=O)[C@H](Cc3cnc[nH]3)NC(=O)[C@@H](CC(C)C)NC(=O)[C@H](CCCN)NC(=O)[C@H](C(C)C)NC(=O)[C@H](Cc3ccc(-c4ccccc4)cc3)NC(=O)[C@H](C(C)C)NC2=O)c1 [Compound 1107] ({CH2CO}-[Dap]Y(Carboxymethyl)D[Phe(3-Me)]V[Bip]V[Orn][dL]H[Cha]VTCD[Aun]-OH; thioether N-14)
27 nM | Cc1cccc(C[C@@H]2NC(=O)[C@H](CC(=O)O)NC(=O)[C@H](Cc3ccc(OCC(=O)O)cc3)NC(=O)[C@H](CN)NC(=O)CSC[C@@H](C(=O)N[C@@H](CCC(=O)O)C(=O)NCCCCCCCCCCC(=O)O)NC(=O)[C@H]([C@@H](C)O)NC(=O)[C@H](C(C)C)NC(=O)[C@H](CC3CCCCC3)NC(=O)[C@H](Cc3cnc[nH]3)NC(=O)[C@@H](CC(C)C)NC(=O)[C@H](CCCN)NC(=O)[C@H](C(C)C)NC(=O)[C@H](Cc3ccc(-c4ccccc4)cc3)NC(=O)[C@H](C(C)C)NC2=O)c1 [Compound 1108] ({CH2CO}-[Dap]Y(Carboxymethyl)D[Phe(3-Me)]V[Bip]V[Orn][dL]H[Cha]VTCE[Aun]-OH; thioether N-14)
37.6 nM | Cc1cccc(C[C@@H]2NC(=O)[C@H](CC(=O)O)NC(=O)[C@H](Cc3ccc(OCC(=O)O)cc3)NC(=O)[C@H](CN)NC(=O)CSC[C@@H](C(=O)N[C@@H](CCCN)C(=O)NCCCCCCCCCCC(=O)O)NC(=O)[C@H]([C@@H](C)O)NC(=O)[C@H](C(C)C)NC(=O)[C@H](CC3CCCCC3)NC(=O)[C@H](Cc3cnc[nH]3)NC(=O)[C@@H](CC(C)C)NC(=O)[C@H](CCCN)NC(=O)[C@H](C(C)C)NC(=O)[C@H](Cc3ccc(-c4ccccc4)cc3)NC(=O)[C@H](C(C)C)NC2=O)c1 [Compound 1109] ({CH2CO}-[Dap]Y(Carboxymethyl)D[Phe(3-Me)]V[Bip]V[Orn][dL]H[Cha]VTC[Orn][Aun]-OH; thioether N-14)
